Measurements taken from US11076594B2, “Pyrazolone compound or salt thereof, preparation method therefor, herbicide composition and use thereof” (QINGDAO KINGAGROOT CHEMICAL COMPOUNDS CO., LTD., priority 2015, dated 2021).

Tests used:
Format in all cases: in vivo
Details in all cases: post-emergence spray at 4-5 leaf stage, 250 g/ha active ingredient with 450 kg/ha water, rated after 3 weeks in greenhouse
Indian mallow = assay: weed control effect in post-emergence stage (Table 1); set-up: key: Level 10: completely dead; Level 9: above 95% growth control rate; Level 8: above 90% growth control rate; Level 7: above 80% growth control rate; Level 6: above 70% growth control rate; Level 5: above 60% growth control rate; Level 4: above 50% growth control rate; Level 3: above 20% growth control rate; Level 2: 5%-20% growth control rate; Level 1: below 5% growth control rate
Outline: (§1)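 Fresh-weight reduction is recorded three weeks after a sprayer applies the acetone/Tween 80 aqueous compound solution to greenhouse-grown plants at the 4-5 leaf stage.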

bidens bipinnata = assay: as above; set-up: key: Level 10: completely dead; Level 9: above 95% growth control rate; Level 8: above 90% growth control rate; Level 7: above 80% growth control rate; Level 6: above 70% growth control rate; Level 5: above 60% growth control rate; Level 4: above 50% growth control rate; Level 3: above 20% growth control rate; Level 2: 5%-20% growth control rate; Level 1: below 5% growth control rate
Outline: as §1

crab grass = assay: as above; set-up: key: Level 10: completely dead; Level 9: above 95% growth control rate; Level 8: above 90% growth control rate; Level 7: above 80% growth control rate; Level 6: above 70% growth control rate; Level 5: above 60% growth control rate; Level 4: above 50% growth control rate; Level 3: above 20% growth control rate; Level 2: 5%-20% growth control rate; Level 1: below 5% growth control rate
Outline: as §1

echinochloa = assay: as above; set-up: key: Level 10: completely dead; Level 9: above 95% growth control rate; Level 8: above 90% growth control rate; Level 7: above 80% growth control rate; Level 6: above 70% growth control rate; Level 5: above 60% growth control rate; Level 4: above 50% growth control rate; Level 3: above 20% growth control rate; Level 2: 5%-20% growth control rate; Level 1: below 5% growth control rate
Outline: as §1

foxtail = assay: as above; set-up: key: Level 10: completely dead; Level 9: above 95% growth control rate; Level 8: above 90% growth control rate; Level 7: above 80% growth control rate; Level 6: above 70% growth control rate; Level 5: above 60% growth control rate; Level 4: above 50% growth control rate; Level 3: above 20% growth control rate; Level 2: 5%-20% growth control rate; Level 1: below 5% growth control rate
Outline: as §1

rorippa indica = assay: as above; set-up: key: Level 10: completely dead; Level 9: above 95% growth control rate; Level 8: above 90% growth control rate; Level 7: above 80% growth control rate; Level 6: above 70% growth control rate; Level 5: above 60% growth control rate; Level 4: above 50% growth control rate; Level 3: above 20% growth control rate; Level 2: 5%-20% growth control rate; Level 1: below 5% growth control rate
Outline: as §1

corn = assay: post-emergence stage experiment, crop (Table 1)
Outline: as §1

wheat = assay: post-emergence stage experiment, crop (Table 1)
Outline: as §1

rice = assay: post-emergence stage experiment, crop (Table 1); set-up: key: Level 10: completely dead; Level 9: above 95% growth control rate; Level 8: above 90% growth control rate; Level 7: above 80% growth control rate; Level 6: above 70% growth control rate; Level 5: above 60% growth control rate; Level 4: above 50% growth control rate; Level 3: above 20% growth control rate; Level 2: 5%-20% growth control rate; Level 1: below 5% growth control rate
Outline: as §1

Row | SMILES | weed control effect, Indian mallow (level) (Indian mallow) | weed control effect, Bidens bipinnata (level) (bidens bipinnata) | weed control effect, Crab grass (level) (crab grass) | weed control effect, Echinochloa (level) (echinochloa) | weed control effect, Green foxtail (level) (foxtail) | weed control effect, Rorippa indica (level) (rorippa indica) | effect on crop, Corn (level) (corn) | effect on crop, Wheat (level) (wheat) | effect on crop, Rice (level) (rice)
1 | Cc1cc(C)n(-c2c(C(F)(F)F)ccc(C(=O)c3c(C)nn(C)c3OC(=O)c3cn(C)nc3C)c2Cl)n1 [Compound 094] | 3 (Level 3: above 20% growth control rate) | 2 (Level 2: 5%-20% growth control rate) | 3 (Level 3: above 20% growth control rate) | 1 (Level 1: below 5% growth control rate) | 1 (Level 1: below 5% growth control rate) | 0 | 1 (Level 1: below 5% growth control rate) | 0 | 0
2 | CCc1nn(CC)c(O)c1C(=O)c1ccc(C(F)(F)F)c(-n2cccn2)c1Cl [Compound 132] | 5 (Level 5: above 60% growth control rate) | 5 (Level 5: above 60% growth control rate) | 3 (Level 3: above 20% growth control rate) | 9 (Level 9: above 95% growth control rate) | 10 | 0 | 0 | 1 (Level 1: below 5% growth control rate) | 5 (Level 5: above 60% growth control rate)
3 | CCn1ncc(C(=O)c2ccc(C(F)(F)F)c(N3CCCC3=O)c2Cl)c1OC(=O)c1cn(C)nc1C [Compound 097] | 10 | 10 | 3 (Level 3: above 20% growth control rate) | 10 | 10 | 10 | 1 (Level 1: below 5% growth control rate) | 1 (Level 1: below 5% growth control rate) | 7 (Level 7: above 80% growth control rate)
4 | CCS(=O)(=O)Oc1c(C(=O)c2ccc(C(F)(F)F)c(N3CCCCC3=O)c2Cl)cnn1C [Compound 031] | 7 (Level 7: above 80% growth control rate) | 6 (Level 6: above 70% growth control rate) | 9 (Level 9: above 95% growth control rate) | 5 (Level 5: above 60% growth control rate) | 10 | 8 (Level 8: above 90% growth control rate) | 9 (Level 9: above 95% growth control rate) | 3 (Level 3: above 20% growth control rate) | 1 (Level 1: below 5% growth control rate)
5 | CCc1nn(C)c(O)c1C(=O)c1ccc(C(F)(F)F)c(N2CCCCC2=O)c1Cl [Compound 110] | 9 (Level 9: above 95% growth control rate) | 5 (Level 5: above 60% growth control rate) | 2 (Level 2: 5%-20% growth control rate) | 9 (Level 9: above 95% growth control rate) | 10 | 10 | 0 | 2 (Level 2: 5%-20% growth control rate) | 10
6 | CCn1ncc(C(=O)c2ccc(C(F)(F)F)c(N3CCCCCC3=O)c2Cl)c1OC(=O)c1cn(C)nc1C [Compound 117] | 9 (Level 9: above 95% growth control rate) | 10 | 3 (Level 3: above 20% growth control rate) | 10 | 10 | 5 (Level 5: above 60% growth control rate) | 0 | 0 | 9 (Level 9: above 95% growth control rate)
7 | Cc1nn(C)cc1C(=O)Oc1c(C(=O)c2ccc(C(F)(F)F)c(N3CCCC3=O)c2Cl)cnn1C [Compound 016] | 10 | 5 (Level 5: above 60% growth control rate) | 10 | 10 | 10 | 10 | 3 (Level 3: above 20% growth control rate) | 3 (Level 3: above 20% growth control rate) | 4 (Level 4: above 50% growth control rate)
8 | CCn1nc(C)c(C(=O)c2ccc(C(F)(F)F)c(N3CCCCCC3=O)c2Cl)c1O [Compound 118] | 0 | 1 (Level 1: below 5% growth control rate) | 1 (Level 1: below 5% growth control rate) | 9 (Level 9: above 95% growth control rate) | 10 | 5 (Level 5: above 60% growth control rate) | 2 (Level 2: 5%-20% growth control rate) | 1 (Level 1: below 5% growth control rate) | 1 (Level 1: below 5% growth control rate)
9 | CCc1nn(CC)c(OC(=O)c2cn(C)nc2C)c1C(=O)c1ccc(C(F)(F)F)c(-n2cccn2)c1Cl [Compound 133] | 10 | 8 (Level 8: above 90% growth control rate) | 2 (Level 2: 5%-20% growth control rate) | 10 | 8 (Level 8: above 90% growth control rate) | 4 (Level 4: above 50% growth control rate) | 4 (Level 4: above 50% growth control rate) | 2 (Level 2: 5%-20% growth control rate) | 8 (Level 8: above 90% growth control rate)
10 | CCn1ncc(C(=O)c2ccc(C(F)(F)F)c(N3CCCCC3=O)c2Cl)c1O [Compound 106] | 7 (Level 7: above 80% growth control rate) | 6 (Level 6: above 70% growth control rate) | 6 (Level 6: above 70% growth control rate) | 10 | 3 (Level 3: above 20% growth control rate) | 5 (Level 5: above 60% growth control rate) | 3 (Level 3: above 20% growth control rate) | 3 (Level 3: above 20% growth control rate) | 9 (Level 9: above 95% growth control rate)
11 | CCOC(=O)Oc1c(C(=O)c2ccc(C(F)(F)F)c(N3CCCCC3=O)c2Cl)c(C)nn1C [Compound 036] | 5 (Level 5: above 60% growth control rate) | 6 (Level 6: above 70% growth control rate) | 5 (Level 5: above 60% growth control rate) | 7 (Level 7: above 80% growth control rate) | 10 | 5 (Level 5: above 60% growth control rate) | 0 | 3 (Level 3: above 20% growth control rate) | 8 (Level 8: above 90% growth control rate)
